The test system of the assay is Mycobacterium tuberculosis. Description: Antitubercular activity against multidrug-resistant Mycobacterium tuberculosis. The format is functional.

In brackets after ≈: the same amount, converted by molar mass.

For the compound `CN1C/C(=C\c2ccc(Cl)cc2Cl)C(=O)[C@]2(C1)[C@H](c1ccc(Cl)cc1Cl)[C@@H]1CSCN1[C@@]21C(=O)Nc2ccc(Cl)cc21`, the MIC (usually the lowest concentration that inhibits growth of the organism) turned out to be 2.4 µM (≈ 1.63 µg/mL). `CN1C/C(=C\c2ccc(Cl)cc2Cl)C(=O)[C@]2(C1)[C@H](c1ccc(Cl)cc1Cl)[C@@H]1CSCN1[C@@]21C(=O)Nc2ccc([N+](=O)[O-])cc21` had an MIC of 0.6 µM (≈ 0.414 µg/mL). Next, `CN1C/C(=C\c2ccc(F)cc2)C(=O)[C@]2(C1)[C@H](c1ccc(F)cc1)[C@@H]1CSCN1[C@@]21C(=O)Nc2ccc([N+](=O)[O-])cc21`: 1.4 µM (≈ 0.824 µg/mL); `CN1C/C(=C\c2ccc(Br)cc2)C(=O)[C@]2(C1)[C@H](c1ccc(Br)cc1)[C@@H]1CSCN1[C@@]21C(=O)Nc2ccc([N+](=O)[O-])cc21`: 2.3 µM (≈ 1.63 µg/mL). Then `CN1C/C(=C\c2ccccc2Cl)C(=O)[C@]2(C1)[C@H](c1ccccc1Cl)[C@@H]1CSCN1[C@@]21C(=O)Nc2ccc([N+](=O)[O-])cc21`, with 2.6 µM (≈ 1.62 µg/mL); and `CN1C/C(=C\c2ccc(F)cc2)C(=O)[C@]2(C1)[C@H](c1ccc(F)cc1)[C@@H]1CSCN1[C@@]21C(=O)Nc2ccc(Cl)cc21`, with 2.8 µM (≈ 1.62 µg/mL). `CC[C@@H](CO)NCCN[C@@H](CC)CO` [ETHAMBUTOL] showed an MIC of 61.2 µM (≈ 12.5 µg/mL). As for `NNC(=O)c1ccncc1` [ISONIAZID], inhibition of growth (MIC) required 11.4 µM (≈ 1.56 µg/mL). Next, `NC(=O)c1cnccn1` [PYRAZINAMIDE]: 406 µM (≈ 50 µg/mL); `CO[C@H]1/C=C/O[C@@]2(C)Oc3c(C)c(O)c4c(O)c(c(/C=N/N5CCN(C)CC5)c(O)c4c3C2=O)NC(=O)/C(C)=C\C=C\[C@H](C)[C@H](O)[C@@H](C)[C@@H](O)[C@@H](C)[C@H](OC(C)=O)[C@@H]1C` [RIFAMPIN]: 3.8 µM (≈ 3.13 µg/mL).
